Test results: publication PMC9934487, “Aging decreases docosahexaenoic acid transport across the blood-brain barrier in C57BL/6J mice” (PLOS ONE, 2023)
“Also recorded” adds a separate entry of the source.

Experiments:
[1] = In situ transcardiac brain perfusion: brain/perfusate ratio at 1 min in 2-, 8-, 12- and 24-month-old mice; format: in vivo, C57BL/6J mice; settings: for decrease of [14C]DHA brain/perfusate ratio: 1 min perfusion at 2 mL/min
Method: (§1) Brain uptake of DHA was assessed in mice using an in situ transcardiac brain perfusion technique. […] The [1-^14C]DHA as NE-DHA (American Radiolabeled Chemicals, St. Louis, MO, USA; ARC0380), [^3H]mannitol (PerkinElmer, Waltham, MA, USA, NET101) and [^14C]sucrose (PerkinElmer, Waltham, MA, USA; NEC100X) were diluted to concentrations of 0.1 μCi/mL (DHA and sucrose) and 0.2 μCi/mL (mannitol) in a physiological buffer containing 141 mM NaCl (Sigma, St. Louis, MO, USA; 28–2270–5), 4 mM KCl (Wako, Osaka, Japan; 163–03545), 2.8 mM CaCl2 (Sigma; 05–0580), 1 mM MgSO4·7H2O (Kishida Chemical Co., Ltd., Osaka, Japan; 000–46905), 1 mM NaH2PO4·2H2O (Wako; 192–02815), 10 mM d-glucose (Wako; 041–00595), and 10 mM 4-(2-hydroxyethyl)-1-piperazineethanesulfonic acid (HEPES; Sigma; H4034); pH 7.4. In a competition assay, unlabeled NE-DHA (Sigma; D2534-100MG) was added to the perfusate (final concentration of unlabeled DHA: 100 μM) before infusion. Ethanol (Nacalai Tesque, Kyoto, Japan; 14713–95) was added to an equal volume of unlabeled DHA to the perfusate (final ethanol concentration: 0.001%) as the vehicle control.
(§2) Mice were anesthetized using an intraperitoneal injection of 25% urethane (Sigma; 94300). The heart was exposed, the left jugular vein was severed, and the descending aorta was ligated. Perfusate containing [^14C]DHA, [^3H]mannitol, or [^14C]sucrose was then infused into the left ventricle of the heart at a rate of 2 mL/min for 0.5 to 1.5 min using a 27 gauge butterfly needle. In the uptake experiment for aged mice, the perfusate was infused for 1 min. After perfusion, the brain was removed, dissected into six regions (the olfactory bulb, forebrain, cortex, hippocampus, thalamus and hypothalamus, and cerebellum), and weighed. Each brain region was mixed with 1 mL of tissue solubilizer (Solvable™; PerkinElmer; 6NE9100) and incubated at 60°C for 24 h. Samples were prepared for scintillation counting by the addition of 0.2 mL H2O2 (Sigma; 13-1910-5) and 10 mL of liquid scintillation cocktail (Pico-Fluor Plus; PerkinElmer; 6013699). The radioactivity in the samples was then measured using a liquid scintillation counter (Packard 2250CA; PerkinElmer). Brain/perfusate ratios were calculated by dividing the radioactivity in 1 g of brain tissue by the radioactivity in an mL of perfusate. Whole brain values were calculated by dividing the total radioactivity in each brain region by the total weight of each brain region. The unidirectional influx rate (Ki) was determined by the linear portion of the slope in the plot of brain/perfusate ratio against perfusion time.

[2] = In situ transcardiac brain perfusion competition assay with excess unlabeled DHA: brain uptake rate (Ki) in 2-month-old mice
Method: as §1, §2
Results are expressed as the mean ± standard error of the mean (SEM). Statistical analyses were performed using GraphPad Prism 8.0 (GraphPad, San Diego, CA, USA). […]

[3] = design: method as in PMID 33054801; settings: ref PMID 33054801; cited from earlier work
[4] = cited from earlier work
[5] = system: rat brain endothelial cells (RBECs); experiment: Cellular uptake of [14C]DHA by primary rat brain endothelial cells; format: cell-based
Method: The method of primary culture of rat brain endothelial cells (RBECs) is previously described. The meninges and white matter were carefully removed from the forebrains, and the gray matter was minced using a scalpel and enzymatic digestion by DMEM (Wako; 048–29763), including collagenase type 2 (1 mg/mL, Worthington, Lakewood, NJ, USA; CLS2) for 75 min at 37°C with agitation in the water bath. After inactivation by adding cold DMEM, the suspension was centrifuged (1,000 × g, 8 min). The pellet was separated by centrifugation in 20% BSA, (Wako, 011–27055)—DMEM (1,000 × g, 20 min). The pellet containing microvessels were further digested with DMEM including collagenase/dispase (1 mg/mL, Roche, Mannheim, Germany; 11097113001) for 20 min at 37°C with agitation in the water bath. After inactivation, microvessel clusters were separated on a 33% continuous Percoll (GE Healthcare, Buckinghamshire, UK; 17-5445-01) gradient, collected and plated on collagen type IV (0.1 mg/mL, Sigma; C5533) and fibronectin (0.075 mg/mL, Sigma; F1141-5MG) coated dishes. RBEC cultures were maintained in RBEC medium [DMEM/F12 (Wako; 042–30555) supplemented with 10% FBS (Biosera, Kansas, MO, USA; FB-1365/500), basic fibroblast growth factor (1.5 ng/mL, R&D, Minneapolis, MN, USA; 2099-FB-025), heparin (100 μg/mL, Sigma; H3149), insulin (5 μg/mL), transferrin (5 μg/mL), sodium selenite (5 ng/mL; insulin-transferrin-sodium selenite media supplement, Sigma; I1884), penicillin (100 units/mL), streptomycin (100 μg/mL; penicillin-streptomycin mixed solution, Nacalai Tesque; 09367–34) and gentamicin (50 μg/mL, Biowest, Riverside, MO, USA; L0012)] containing puromycin (4 μg/mL, Nacalai Tesque; 14861–84) at 37°C in a humidified atmosphere of 5% CO2/95% air, for three days and typically reached 70–80% confluency. […]
To measure the cellular uptake of DHA, RBECs cultured on a 24-well plate were incubated with 0.2 mL of physiological buffer containing 0.1 μCi/mL [^14C]DHA (incubation buffer) at 37°C for 30 s to 15 min. […] The total protein concentration in the cell lysates was determined using a Pierce™ BCA Protein Assay Kit. Samples were added to 10 mL of a liquid scintillation cocktail, then [^14C]DHA radioactivity in the cell lysate was measured using a liquid scintillation counter. The cellular uptake of [^14C]DHA by RBECs was expressed as cell/medium ratios calculated by dividing the radioactivity in one milligram of protein by the radioactivity in one microliter of the incubation buffer. The rate of cellular uptake was determined by the linear portion of the slope of the cell/medium ratios against the incubation time (0.5, 2, 5, and 10 min) graph.

[6] = system: bovine brain endothelial cells; design: method as in PMID: 9886086; settings: 2 h incubation; ref PMID: 9886086; cited from earlier work
[7] = co-infusion of an excess amount of DHA
[8] = capillary depletion after a 40 s in situ brain perfusion, ref PMID: 19442696

OC[C@@H](O)[C@@H](O)[C@H](O)[C@H](O)CO [[^3H]mannitol, mannitol]
effect of age on brain uptake of [3H]mannitol ([1]; each brain region, 2-, 8-, 12-, 24-month-old mice, 1 min): no significant effects with age | change in brain uptake (brain/perfusate ratio) of [3H]mannitol with age ([1]; whole brain, 2-, 8-, 12-, 24-month-old mice, 1 min): No significant changes; also recorded: no significant differences | Kin for [3H]mannitol [2, 7]: not changed | brain/perfusate ratio of [3H]mannitol [2, 7]: increased

OC[C@@H](O)[C@@H](O)[C@H](O)[C@H](O)CO [mannitol]
brain concentrations and Kin compared with sucrose [3]: higher

CC/C=C\C/C=C\C/C=C\C/C=C\C/C=C\C/C=C\CCC(=O)O [[^14C]DHA, Docosahexaenoic acid]
difference of [14C]DHA brain/perfusate ratio ([1]; forebrain, 2 vs. 12 months old): 0.04489 mL/g | difference of [14C]DHA brain/perfusate ratio ([1]; forebrain, 2 vs. 24 months old): 0.05294 mL/g | difference of [14C]DHA brain/perfusate ratio ([1]; hippocampus, 2 vs. 12 months old): 0.03402 mL/g | difference of [14C]DHA brain/perfusate ratio ([1]; hippocampus, 2 vs. 24 months old): 0.06034 mL/g | difference of [14C]DHA brain/perfusate ratio ([1]; olfactory bulb, 2 vs. 24 months old): 0.04626 mL/g | difference of [14C]DHA brain/perfusate ratio ([1]; thalamus and hypothalamus, 2 vs. 12 months old): 0.04306 mL/g | difference of [14C]DHA brain/perfusate ratio ([1]; thalamus and hypothalamus, 2 vs. 24 months old): 0.05106 mL/g | decrease of [14C]DHA brain/perfusate ratio ([1]; whole brain, 12-month-old vs 2-month-old mice): 0.03275 mL/g | decrease of [14C]DHA brain/perfusate ratio ([1]; whole brain, 24-month-old vs 2-month-old mice): 0.03827 mL/g | [14C]DHA detected in brain parenchymal fraction [4, 8]: more than 90% | [14C]DHA remaining in the endothelial cells of the brain vasculature [4, 8]: less than 10% | [14C]DHA remaining in endothelial cells of the brain vasculature ([4]; capillary depletion after brain perfusion, ref 12 (printed [40])): less than 10% | perfusion time at which brain uptake of [14C]DHA plateaued ([2]; 2-month-old mice, perfusion at 2 mL/min): 1.5 min | rate of cellular uptake of [14C]DHA by RBECs ([5]; 4°C): 19.98 μLmg protein^-1 min^-1 | rate of cellular uptake of [14C]DHA by RBECs ([5]; 37°C): 50.13 μLmg protein^-1 min^-1 | time at which cellular uptake of [14C]DHA by RBECs peaked ([5]; intact RBECs, 37°C): 10 min

CC/C=C\C/C=C\C/C=C\C/C=C\C/C=C\C/C=C\CCC(=O)O [unlabeled DHA, Docosahexaenoic acid]
inhibition at 100 µM ([2]; Mus musculus, read-out: extent of inhibition of the brain uptake rate of [14C]DHA): ~50% | fate of non-esterified DHA taken up by brain endothelial cells [6]: mainly incorporated into phosphatidylcholine | effect on cellular uptake rate of [14C]DHA in rat brain endothelial cells ([5]; in the presence of unlabeled DHA, vs vehicle (Fig. F of response letter)): declined; also recorded: decreased
